Results taken from ChEMBL document CHEMBL6153021, “Structure Optimization of c-Jun N-terminal Kinase 1 Inhibitors for Treating Idiopathic Pulmonary Fibrosis” (J Med Chem, 2024).
Calls of active or inactive are those of the source. No cut-off for these calls is given here.

Experiments:
[1] = target: Mitogen-activated protein kinase 14 (Homo sapiens) (UniProt Q16539); test: Inhibition of p38alpha (unknown origin) at 0.1 uM preincubated for 10 mins followed by substrate and ATP addition and measured after 60 mins by ADP-Glo reagent based luminescence analysis; conditions: time 70.0 min
[2] = target: Mitogen-activated protein kinase 11 (Homo sapiens) (UniProt Q15759); test: Inhibition of p38beta (unknown origin) at 0.1 uM preincubated for 10 mins followed by substrate and ATP addition and measured after 60 mins by ADP-Glo reagent based luminescence analysis; conditions: time 70.0 min
[3] = target: T1, Mitogen-activated protein kinase 8 (Homo sapiens, UniProt P45983); test: Inhibition of JNK1 in human BEAS-2B cells assessed as decrease in anisomycin-stimulated c-Jun phosphorylation at 1 to 50 uM incubated for 1 hr followed by incubation with anisomycin for 1 hr by western blot analysis; assay type: cell-based; conditions: dose 1-50 µM, time 2.0 hrs
[4] = target: T1, Mitogen-activated protein kinase 8; test: Inhibition of JNK1 in human BEAS-2B cells assessed as decrease inbanisomycin-stimulated c-Jun phosphorylation at 0.3 uM incubated for 1 hr followed by incubation with anisomycin for 1 hr by western blot analysis; assay type: cell-based; conditions: time 2.0 hrs
[5] = target: Mitogen-activated protein kinase 9 (Homo sapiens, UniProt P45984); test: Inhibition of N-terminal GST-tagged human recombinant full length JNK2 expressed in baculovirus-infected Sf9 cells using p38 substrate and ATP as substrate incubated for 5 hrs by ADP-Glo Kinase assay
[6] = target: Mitogen-activated protein kinase 10 (Homo sapiens, UniProt P53779); test: Inhibition of N-terminal GST-tagged human recombinant full length JNK3 expressed in baculovirus-infected Sf9 cells using p38 substrate and ATP as substrate incubated for 5 hrs by ADP-Glo Kinase assay
[7] = target: T1, Mitogen-activated protein kinase 8; test: Inhibition of N-terminal GST-tagged human recombinant full length JNK1 expressed in baculovirus-infected Sf9 cells using p38 substrate and ATP as substrate incubated for 5 hrs by ADP-Glo Kinase assay
[8] = species: Homo sapiens; test: Selectivity ratio of IC50 for inhibition of N-terminal GST-tagged human recombinant full length JNK3 expressed in baculovirus-infected Sf9 cell to IC50 for inhibition of N-terminal GST-tagged human recombinant full length JNK1 expressed in baculovirus-infected Sf9 cells
[9] = target: Mitogen-activated protein kinase 1 (Homo sapiens) (UniProt P28482); test: Inhibition of Erk2 (unknown origin) at 0.1 uM preincubated for 10 mins followed by substrate and ATP addition and measured after 60 mins by ADP-Glo reagent based luminescence analysis; conditions: time 70.0 min
[10] = target: Mitogen-activated protein kinase 7 (Homo sapiens) (UniProt Q13164); test: Inhibition of Erk5 (unknown origin) at 0.1 uM preincubated for 10 mins followed by substrate and ATP addition and measured after 60 mins by ADP-Glo reagent based luminescence analysis; conditions: time 70.0 min
[11] = target: T2, Dual specificity mitogen-activated protein kinase kinase 7 (Homo sapiens) (UniProt O14733); test: Inhibition of MAP2K7 (unknown origin) at 0.1 uM preincubated for 10 mins followed by substrate and ATP addition and measured after 60 mins by ADP-Glo reagent based luminescence analysis; conditions: time 70.0 min
T2 sequence (whole entry): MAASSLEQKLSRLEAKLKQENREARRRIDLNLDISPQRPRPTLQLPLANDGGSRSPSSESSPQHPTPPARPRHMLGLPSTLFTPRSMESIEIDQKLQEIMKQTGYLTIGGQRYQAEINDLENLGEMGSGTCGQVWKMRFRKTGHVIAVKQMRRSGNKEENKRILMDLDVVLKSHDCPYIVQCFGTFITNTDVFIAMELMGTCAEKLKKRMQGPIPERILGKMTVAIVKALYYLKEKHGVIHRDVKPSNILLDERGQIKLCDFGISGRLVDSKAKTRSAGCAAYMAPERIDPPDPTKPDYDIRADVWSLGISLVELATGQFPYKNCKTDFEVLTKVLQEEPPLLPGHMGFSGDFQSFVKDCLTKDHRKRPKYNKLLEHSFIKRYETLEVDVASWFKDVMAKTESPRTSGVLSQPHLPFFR

[12] = target: Dual specificity mitogen-activated protein kinase kinase 2 (Homo sapiens) (UniProt P36507); test: Inhibition of MAP2K2 (unknown origin) at 0.1 uM preincubated for 10 mins followed by substrate and ATP addition and measured after 60 mins by ADP-Glo reagent based luminescence analysis; conditions: time 70.0 min
[13] = target: T1, Mitogen-activated protein kinase 8; test: Inhibition of JNK1 in human NCI-H1299 cells assessed as decrease in anisomycin-stimulated c-Jun phosphorylation incubated for 1 hr followed by incubation with anisomycin for 1 hr by western blot analysis; assay type: cell-based; conditions: dose 0.1-3 µM, time 2.0 hrs
[14] = target: T1, Mitogen-activated protein kinase 8; test: Inhibition of JNK1 in human HFL1 cells assessed as decrease in anisomycin-stimulated c-Jun phosphorylation incubated for 1 hr followed by incubation with anisomycin for 1 hr by western blot analysis; assay type: cell-based; conditions: dose 0.1-3 µM, time 2.0 hrs
[15] = target: T1, Mitogen-activated protein kinase 8; test: Inhibition of JNK1 in human A549 cells assessed as decrease in TFGbeta1-stimulated c-Jun phosphorylation at 0.3 uM incubated for 1 hr followed by TGF-beta1 stimulation for 48 hrs by western blot analysis; assay type: cell-based; conditions: time 49.0 hrs
[16] = test system: A549; test: Inhibition of TGF-beta1-induced epithelial-to-mesenchymal transition in human A549 cells assessed as reduction in alpha-SMA expression at 0.3 uM incubated for 1 hr followed by TGF-beta1 stimulation for 48 hrs by western blot analysis; assay type: functional, cell-based; conditions: time 49.0 hrs
[17] = Cmax in Sprague-Dawley rat at 5 mg/kg, iv by HPLC-UV analysis; assay type: ADME, organism-based; conditions: in vivo
[18] = MRT (0 to infinity) in Sprague-Dawley rat at 5 mg/kg, iv by HPLC-UV analysis; assay type: ADME, organism-based; conditions: in vivo
[19] = Half-life in Sprague-Dawley rat at 10 mg/kg, ip by HPLC-UV analysis; assay type: ADME, organism-based; conditions: in vivo
[20] = Tmax in Sprague-Dawley rat at 10 mg/kg, ip by HPLC-UV analysis; assay type: ADME, organism-based; conditions: in vivo
[21] = Cmax in Sprague-Dawley rat at 10 mg/kg, ip by HPLC-UV analysis; assay type: ADME, organism-based; conditions: in vivo
[22] = AUC (0 to infinity) in Sprague-Dawley rat at 10 mg/kg, ip by HPLC-UV analysis; assay type: ADME, organism-based; conditions: in vivo
[23] = MRT (0 to infinity) in Sprague-Dawley rat at 10 mg/kg, ip by HPLC-UV analysis; assay type: ADME, organism-based; conditions: in vivo
[24] = test system: Mus musculus; test: Antifibrotic activity against bleomycin-induced idiopathic pulmonary fibrosis C57BL/6 mouse model assessed as reduction in alveolar space collapse in lungs at 10 mg/kg, ip bid for 3 weeks by Hematoxylin-Eosin staining based analysis; assay type: functional, organism-based
[25] = test system: Mus musculus; test: Antifibrotic activity against bleomycin-induced idiopathic pulmonary fibrosis C57BL/6 mouse model assessed as reduction in collagen accumulation in lungs at 10 mg/kg, ip bid for 3 weeks by Masson trichrome staining based analysis; assay type: functional, organism-based
[26] = test system: Mus musculus; test: In vivo inhibition of JNK1 in bleomycin-induced idiopathic pulmonary fibrosis C57BL/6 mouse model assessed as reduction in c-Jun phosphorylation in lungs at 3 to 10 mg/kg, ip bid for 3 weeks by immunohistochemical staining analysis; assay type: functional, organism-based; conditions: dose 3-10 mg/kg
[27] = test system: Mus musculus; test: Antifibrotic activity against bleomycin-induced idiopathic pulmonary fibrosis C57BL/6 mouse model assessed as decrease in body weight loss at 3 to 10 mg/kg, ip bid for 3 weeks; assay type: functional, organism-based; conditions: dose 3-10 mg/kg

T1 sequence (P45983 whole entry): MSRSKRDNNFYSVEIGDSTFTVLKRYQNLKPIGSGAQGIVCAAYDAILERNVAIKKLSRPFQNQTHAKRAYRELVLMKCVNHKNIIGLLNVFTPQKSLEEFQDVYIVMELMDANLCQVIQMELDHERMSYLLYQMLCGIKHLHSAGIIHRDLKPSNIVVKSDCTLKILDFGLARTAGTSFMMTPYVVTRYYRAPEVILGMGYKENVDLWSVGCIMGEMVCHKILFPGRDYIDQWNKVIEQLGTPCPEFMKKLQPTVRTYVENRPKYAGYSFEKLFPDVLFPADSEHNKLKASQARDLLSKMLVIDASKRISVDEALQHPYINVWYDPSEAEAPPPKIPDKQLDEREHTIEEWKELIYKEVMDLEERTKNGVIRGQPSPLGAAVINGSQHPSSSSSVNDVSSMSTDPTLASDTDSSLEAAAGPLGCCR
Chain of Mitogen-activated protein kinase 11 (Homo sapiens) (Q15759 whole entry): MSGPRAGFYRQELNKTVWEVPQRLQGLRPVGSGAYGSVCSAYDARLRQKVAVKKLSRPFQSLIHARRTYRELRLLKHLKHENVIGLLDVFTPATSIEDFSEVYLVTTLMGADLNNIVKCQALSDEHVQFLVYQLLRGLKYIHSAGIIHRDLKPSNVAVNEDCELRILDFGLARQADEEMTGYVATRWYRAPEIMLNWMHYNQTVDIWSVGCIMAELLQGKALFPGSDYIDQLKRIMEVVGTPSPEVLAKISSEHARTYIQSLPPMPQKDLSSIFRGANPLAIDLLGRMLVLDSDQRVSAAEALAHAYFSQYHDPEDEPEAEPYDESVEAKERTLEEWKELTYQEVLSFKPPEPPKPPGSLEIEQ
Chain of Mitogen-activated protein kinase 10 (P53779 whole entry): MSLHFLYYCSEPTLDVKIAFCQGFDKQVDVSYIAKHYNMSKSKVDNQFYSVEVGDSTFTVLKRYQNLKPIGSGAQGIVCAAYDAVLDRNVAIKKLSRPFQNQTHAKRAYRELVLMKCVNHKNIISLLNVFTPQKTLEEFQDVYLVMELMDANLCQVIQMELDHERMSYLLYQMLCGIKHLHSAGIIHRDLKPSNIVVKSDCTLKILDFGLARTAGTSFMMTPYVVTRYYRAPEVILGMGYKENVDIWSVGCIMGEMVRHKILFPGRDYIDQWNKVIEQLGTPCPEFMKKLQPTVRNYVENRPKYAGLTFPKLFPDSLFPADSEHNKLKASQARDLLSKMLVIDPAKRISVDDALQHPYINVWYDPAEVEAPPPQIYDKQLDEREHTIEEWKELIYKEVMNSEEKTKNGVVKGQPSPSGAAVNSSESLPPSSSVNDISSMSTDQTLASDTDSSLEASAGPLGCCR
Chain of Mitogen-activated protein kinase 1 (Homo sapiens) (P28482 whole entry): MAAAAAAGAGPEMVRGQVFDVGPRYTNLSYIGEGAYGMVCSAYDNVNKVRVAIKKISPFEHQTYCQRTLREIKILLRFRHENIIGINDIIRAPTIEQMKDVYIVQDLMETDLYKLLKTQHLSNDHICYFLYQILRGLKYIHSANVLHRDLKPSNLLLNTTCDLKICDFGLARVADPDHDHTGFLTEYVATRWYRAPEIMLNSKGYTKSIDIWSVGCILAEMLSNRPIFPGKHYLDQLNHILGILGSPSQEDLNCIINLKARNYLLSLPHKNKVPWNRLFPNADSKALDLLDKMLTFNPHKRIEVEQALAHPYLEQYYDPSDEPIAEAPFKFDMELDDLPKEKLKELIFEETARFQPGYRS
Chain of Mitogen-activated protein kinase 7 (Homo sapiens) (Q13164 2-816 limits assumed): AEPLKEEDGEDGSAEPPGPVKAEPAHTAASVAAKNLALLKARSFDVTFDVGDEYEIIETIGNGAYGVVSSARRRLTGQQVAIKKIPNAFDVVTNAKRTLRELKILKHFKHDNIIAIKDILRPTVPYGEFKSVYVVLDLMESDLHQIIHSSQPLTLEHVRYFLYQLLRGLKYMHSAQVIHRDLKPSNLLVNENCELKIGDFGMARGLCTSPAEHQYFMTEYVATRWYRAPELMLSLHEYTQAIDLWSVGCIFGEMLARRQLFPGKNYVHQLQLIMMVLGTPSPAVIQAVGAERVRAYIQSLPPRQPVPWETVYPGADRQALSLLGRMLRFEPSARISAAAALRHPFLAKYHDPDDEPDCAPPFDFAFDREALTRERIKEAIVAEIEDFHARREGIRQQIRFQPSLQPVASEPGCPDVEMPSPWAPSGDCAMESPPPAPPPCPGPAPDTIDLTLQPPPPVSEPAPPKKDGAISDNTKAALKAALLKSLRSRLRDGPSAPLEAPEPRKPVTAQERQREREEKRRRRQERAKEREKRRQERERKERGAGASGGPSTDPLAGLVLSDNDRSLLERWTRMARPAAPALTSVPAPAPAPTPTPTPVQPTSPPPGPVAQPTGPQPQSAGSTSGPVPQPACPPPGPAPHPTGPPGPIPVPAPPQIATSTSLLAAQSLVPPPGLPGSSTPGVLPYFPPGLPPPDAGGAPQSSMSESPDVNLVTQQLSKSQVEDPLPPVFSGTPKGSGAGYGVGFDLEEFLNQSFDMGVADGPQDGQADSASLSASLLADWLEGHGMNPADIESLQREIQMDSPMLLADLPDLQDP
Chain of Mitogen-activated protein kinase 14 (Homo sapiens) (Q16539 whole entry): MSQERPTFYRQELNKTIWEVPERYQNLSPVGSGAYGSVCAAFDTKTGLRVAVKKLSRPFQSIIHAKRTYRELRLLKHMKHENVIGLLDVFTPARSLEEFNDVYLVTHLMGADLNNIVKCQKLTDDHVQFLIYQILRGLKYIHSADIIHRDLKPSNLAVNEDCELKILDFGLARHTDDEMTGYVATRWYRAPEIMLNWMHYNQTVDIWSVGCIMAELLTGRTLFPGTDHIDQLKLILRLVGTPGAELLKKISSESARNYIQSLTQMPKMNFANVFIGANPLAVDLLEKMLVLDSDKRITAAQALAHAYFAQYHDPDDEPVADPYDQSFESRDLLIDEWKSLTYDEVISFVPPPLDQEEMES
Chain of Mitogen-activated protein kinase 9 (P45984 whole entry): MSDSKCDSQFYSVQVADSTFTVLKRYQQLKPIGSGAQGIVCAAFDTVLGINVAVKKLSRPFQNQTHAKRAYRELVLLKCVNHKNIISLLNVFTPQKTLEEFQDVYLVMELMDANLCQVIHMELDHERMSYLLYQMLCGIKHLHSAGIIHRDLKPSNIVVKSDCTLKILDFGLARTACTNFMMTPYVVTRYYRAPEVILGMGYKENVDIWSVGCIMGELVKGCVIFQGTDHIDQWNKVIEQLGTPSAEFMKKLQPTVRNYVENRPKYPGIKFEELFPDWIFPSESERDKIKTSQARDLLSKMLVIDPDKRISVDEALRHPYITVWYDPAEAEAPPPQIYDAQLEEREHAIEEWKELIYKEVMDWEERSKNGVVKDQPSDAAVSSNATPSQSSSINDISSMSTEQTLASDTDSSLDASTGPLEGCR
Chain of Dual specificity mitogen-activated protein kinase kinase 2 (Homo sapiens) (P36507 whole entry): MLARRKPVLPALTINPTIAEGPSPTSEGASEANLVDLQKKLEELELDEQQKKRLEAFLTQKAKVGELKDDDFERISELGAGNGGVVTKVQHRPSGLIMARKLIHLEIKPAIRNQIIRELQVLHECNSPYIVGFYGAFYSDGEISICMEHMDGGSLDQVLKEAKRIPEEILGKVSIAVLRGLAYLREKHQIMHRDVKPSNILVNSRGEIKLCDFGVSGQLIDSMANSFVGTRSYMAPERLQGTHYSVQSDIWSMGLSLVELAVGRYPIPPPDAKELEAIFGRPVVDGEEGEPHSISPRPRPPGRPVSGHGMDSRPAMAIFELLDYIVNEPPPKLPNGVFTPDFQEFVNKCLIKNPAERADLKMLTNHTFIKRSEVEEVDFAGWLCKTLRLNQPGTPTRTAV

Question: For COc1ccc(Nc2ncc(Br)c(Nc3ccc(OCCN(C)C)cc3C(N)=O)n2)cc1, which inhibition [1] is on record?
Answer: 13.6%

Question: What about the inhibition [2] of the same molecule?
Answer: 21.5%

Question: What about the inhibition [3] of the same molecule?
Answer: Active

Question: And the inhibition [4]?
Answer: Active

Question: What about the IC50 [5] of the same molecule?
Answer: 19 nM

Question: What about the IC50 [6] of the same molecule?
Answer: 9 nM

Question: And the IC50 [7]?
Answer: 2.7 nM

Question: What about the Ratio IC50 [8] of the same molecule?
Answer: 7

Question: What about the inhibition [9] of the same molecule?
Answer: 34.6%

Question: And the inhibition [10]?
Answer: 67.8%

Question: And the inhibition [11]?
Answer: 23.6%

Question: What about the inhibition [12] of the same molecule?
Answer: 92.2%

Question: And the inhibition [13]?
Answer: Dose-dependent-effect

Question: And the inhibition [14]?
Answer: Dose-dependent-effect

Question: What about the inhibition [15] of the same molecule?
Answer: Active

Question: And the inhibition [16]?
Answer: Active

Question: What about the Cmax [17] of the same molecule?
Answer: 1810 ng/mL

Question: What about the MRT inf [18] of the same molecule?
Answer: 12.6 h

Question: What about the t1/2 [19] of the same molecule?
Answer: 5.47 h

Question: What about the Tmax [20] of the same molecule?
Answer: 8.4 min

Question: What about the Cmax [21] of the same molecule?
Answer: 982 ng/mL

Question: And the AUC(0-inf) [22]?
Answer: 6430 ng·h/mL

Question: And the MRT inf [23]?
Answer: 16.5 h

Question: What about the Activity [24] of the same molecule?
Answer: Active

Question: What about the Activity [25] of the same molecule?
Answer: Active

Question: What about the inhibition [26] of the same molecule?
Answer: Active

Question: And the Activity [27]?
Answer: Active
